System: SEM cells
Test: cell viability relative to DMSO control; higher = less cytotoxic
Conditions: 48 h
Method in brief: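 In 1536-well plates, 5 μl of leukemia cells were seeded per well: 500 cells/well for NOMO1 or SEM and 1000 cells/well for P12-Ichikawa. Each line had first been adapted for at least four passages in each medium. Library compounds in DMSO were pin-dosed at 11 threefold concentrations between 47 μM and 0.79 nM, and CellTiter-Glo One luminescence was read after 48 h at 37°C. Viability is a per-plate percentage relative to DMSO wells, with cell-free wells as background.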

[1] = HPLM + 10% dialyzed FBS, 0.000781 µM
[2] = HPLM + 10% dialyzed FBS, 0.00234 µM
[3] = HPLM + 10% dialyzed FBS, 0.00702 µM
[4] = HPLM + 10% dialyzed FBS, 0.0211 µM
[5] = HPLM + 10% dialyzed FBS, 0.0632 µM
[6] = HPLM + 10% dialyzed FBS, 0.19 µM
[7] = HPLM + 10% dialyzed FBS, 0.569 µM
[8] = HPLM + 10% dialyzed FBS, 1.71 µM
[9] = HPLM + 10% dialyzed FBS, 5.12 µM
[10] = HPLM + 10% dialyzed FBS, 15.4 µM
[11] = HPLM + 10% dialyzed FBS, 46.1 µM
[12] = RPMI 5 mM glucose + 10% FBS, 0.000781 µM
[13] = RPMI 5 mM glucose + 10% FBS, 0.00234 µM
[14] = RPMI 5 mM glucose + 10% FBS, 0.00702 µM
[15] = RPMI 5 mM glucose + 10% FBS, 0.0211 µM
[16] = RPMI 5 mM glucose + 10% FBS, 0.0632 µM
[17] = RPMI 5 mM glucose + 10% FBS, 0.19 µM
[18] = RPMI 5 mM glucose + 10% FBS, 0.569 µM
[19] = RPMI 5 mM glucose + 10% FBS, 1.71 µM
[20] = RPMI 5 mM glucose + 10% FBS, 5.12 µM
[21] = RPMI 5 mM glucose + 10% FBS, 15.4 µM
[22] = RPMI 5 mM glucose + 10% FBS, 46.1 µM
[23] = RPMI 5 mM glucose + 10% dialyzed FBS, 0.000781 µM
[24] = RPMI 5 mM glucose + 10% dialyzed FBS, 0.00234 µM
[25] = RPMI 5 mM glucose + 10% dialyzed FBS, 0.00702 µM
[26] = RPMI 5 mM glucose + 10% dialyzed FBS, 0.0211 µM
[27] = RPMI 5 mM glucose + 10% dialyzed FBS, 0.0632 µM
[28] = RPMI 5 mM glucose + 10% dialyzed FBS, 0.19 µM
[29] = RPMI 5 mM glucose + 10% dialyzed FBS, 0.569 µM
[30] = RPMI 5 mM glucose + 10% dialyzed FBS, 1.71 µM
[31] = RPMI 5 mM glucose + 10% dialyzed FBS, 5.12 µM
[32] = RPMI 5 mM glucose + 10% dialyzed FBS, 15.4 µM
[33] = RPMI 5 mM glucose + 10% dialyzed FBS, 46.1 µM

| SMILES | cell viability [1] [%] | cell viability [2] [%] | cell viability [3] [%] | cell viability [4] [%] | cell viability [5] [%] | cell viability [6] [%] | cell viability [7] [%] | cell viability [8] [%] | cell viability [9] [%] | cell viability [10] [%] | cell viability [11] [%] | cell viability [12] [%] | cell viability [13] [%] | cell viability [14] [%] | cell viability [15] [%] | cell viability [16] [%] | cell viability [17] [%] | cell viability [18] [%] | cell viability [19] [%] | cell viability [20] [%] | cell viability [21] [%] | cell viability [22] [%] | cell viability [23] [%] | cell viability [24] [%] | cell viability [25] [%] | cell viability [26] [%] | cell viability [27] [%] | cell viability [28] [%] | cell viability [29] [%] | cell viability [30] [%] | cell viability [31] [%] | cell viability [32] [%] | cell viability [33] [%] |
| --- | --- | --- | --- | --- | --- | --- | --- | --- | --- | --- | --- | --- | --- | --- | --- | --- | --- | --- | --- | --- | --- | --- | --- | --- | --- | --- | --- | --- | --- | --- | --- | --- | --- |
| CSC1=CC(=CC=C1)NC2=NC3=C(C=N2)/C=C(C(=O)N3C)/C4=C(Cl)C=CC=C4Cl | 86.5 | 90.7 | 97.7 | 77.3 | 86.4 | 89.7 | 97 | 99.4 | 88.9 | 77 | 55.2 | 120 | 110 | 110 | 53.5 | 105 | 97.4 | 126 | 120 | 112 | 91.4 | 81.3 | 96.1 | 89 | 91.9 | 80.1 | 96 | 78.3 | 103 | 84.9 | 84.3 | 69.4 | 52.4 |
| O=C(O)c1ccc2cc(-c3ccc(O)c(C45CC6CC(CC(C6)C4)C5)c3)ccc2c1 | – | – | – | – | – | – | – | – | – | – | – | 120 | 129 | 114 | 118 | 118 | 93.1 | 41.7 | 19.8 | 10.5 | 9.46 | 8.21 | – | – | – | – | – | – | – | – | – | – | – |
| COC[C@H](NC(=O)c1cnc(C)s1)C(=O)N[C@@H](COC)C(=O)N[C@@H](Cc1ccccc1)C(=O)[C@@]1(C)CO1 | 116 | 97.1 | 110 | 121 | 92.3 | 5.47 | 3.74 | 3.51 | 2.04 | 1.53 | 2.48 | 102 | 91.6 | 111 | 120 | 82 | 6.81 | 3.82 | 3.59 | 2.31 | 1.56 | 2.78 | 81.9 | 87.7 | 108 | 101 | 70.3 | 5.77 | 3.78 | 2.78 | 1.96 | 1.46 | 2.4 |
| Cc1cc(O)c2c3c4c(cc(O)c13)C(C)(C)C(=O)c1c(O)cc(O)c(c1-4)C2=O | 104 | 110 | 108 | 91.5 | 120 | 114 | 106 | 117 | 98.7 | 90.8 | 66.1 | – | – | – | – | – | – | – | – | – | – | – | 91.4 | 90.9 | 92 | 94.3 | 110 | 113 | 98 | 84.2 | 97.4 | 88.6 | 65.5 |
| CN1C(=O)\C(=C/C(=C1/NC2=C(F)C=C(I)C=C2)C(=O)NOCCO)C | 92.4 | 107 | 106 | 91.8 | 91.7 | 78.7 | 67.8 | 67.5 | 77.2 | 70.6 | 72.9 | 97.1 | 102 | 93.9 | 99 | 76.9 | 72.7 | 82 | 86 | 84 | 70.8 | 65 | 109 | 91.8 | 98 | 78.3 | 77.7 | 60.4 | 72.3 | 68.1 | 63.2 | 59 | 67.8 |
| CCOC(=O)Nc1ccc(NCc2ccc(F)cc2)cc1N | 122 | 122 | 128 | 120 | 103 | 123 | 119 | 112 | 113 | 107 | 90 | 115 | 116 | 123 | 136 | 102 | 131 | 122 | 111 | 113 | 134 | 97.7 | 106 | 132 | 121 | 128 | 123 | 124 | 112 | 122 | 124 | 122 | 83.5 |
| O=C1Nc2ccccc2/C1=C1\Nc2ccccc2C1=O | 82.1 | 85.1 | 85.5 | 84.9 | 80.4 | 64.2 | 63.3 | 75 | 73.9 | 86.8 | 69.8 | 104 | 87.4 | 90.6 | 87.5 | 90.1 | 79.4 | 84 | 71.2 | 81.4 | 78.4 | 77.7 | 89.2 | 91.7 | 85.2 | 85.4 | 82.5 | 70.6 | 60.6 | 67 | 74.4 | 86 | 80.3 |
| Cc1c[nH]c(/C=C2\C(=O)Nc3ccccc32)c1CCC(=O)O | 102 | 107 | 112 | 103 | 89.8 | 90.1 | 69.7 | 51.6 | 42.6 | 26.7 | 39 | 61.2 | 83.1 | 83.6 | 64.7 | 72.7 | 49.3 | 50.6 | 34.1 | 27.6 | 28.1 | 26.6 | 107 | 105 | 99.6 | 94.7 | 90.8 | 75.8 | 67.6 | 47.1 | 33.6 | 25.7 | 46.5 |

From the supplement of paper PMC11451515
